Measurements published in patent publication US7803795B2, “Phthalazine derivatives as parp inhibitors” (Janssen Pharmaceutica N.V., priority 2004, dated 2010).

What was measured:
[1] = system: heart (ischemia and reperfusion); details: rabbits, cited from earlier work
distal colon (colitis) = details: rats, colitis by intraluminal trinitrobenzene sulfonic acid in 50% ethanol; cited from earlier work
PARP-1 enzyme = target: T1, PARP-1 enzyme (Homo sapiens, UniProt P09874); assay: in vitro filtration assay for PARP-1 inhibitory activity; assay type: biochemical; details: [32P]-NAD, histones, nicked DNA; dose-response 10^-5 M to 10^-8 M; read-out: in vitro filter assay PARP-1 pIC50 (converted)
T1 construct: made in house
Protocol: In Vitro Filtration Assay for PARP-1 Inhibitory Activity
Compounds of the present invention were tested in an in vitro filtration assay assessing PARP-1 activity (triggered in the presence of nicked DNA) by means of its histone poly (ADP-ribosylation activity using [^32P]-NAD as ADP-ribosyl donor. The radioactive ribosylated histones were precipitated by trichloroacetic acid (TCA) in 96-well filterplates and the incorporated [^32P] measured using a scintillation counter
A mixture of histones (stock solution: 5 mg/ml in H2O), NAD^+ (stock solution: 100 mM in H2O), and [^32P]-NAD^+ in incubation buffer (50 mM Tris/HCl, pH 8; 0.2 mM DTT; 4 mM MgCl2) was made. A mixture of the PARP-1 enzyme (5-10 μg/ml) and nicked DNA was also made. The nicked DNA was prepared as described in the in vitro SPA for PARP-1 inhibitory activity. Seventy-five μl of the PARP-1 enzyme/DNA mixture together with 1 μl of compound in DMSO and 25 μl of histones-NAD^+/[^32P]-NAD^+ mixture was added per well of a 96-well filterplate (0.45 μm, supplier Millipore). The final concentrations in the incubation mixture were 2 μg/ml for the histones, 0.1 mM for the NAD^+, […] (0.5 μC) for the [^32P]-NAD^+ and 2 μg/ml for the nicked DNA. Plates were incubated for 15 min. at room temperature and the reaction was terminated by the addition of 10 μl ice cold 100% TCA followed by the addition of 10 μl ice-cold BSA solution (1% in H2O). The protein fraction was allowed to precipitate for 10 min. at 4° C. and plates were vacuum filtered. The plates were subsequently washed with, for each well, 1 ml of 10% ice cold TCA, 1 ml of 5% ice cold TCA and 1 ml of 5% TCA at room temperature. Finally 100 μl of scintillation solution (Microscint 40, Packard) was added to each well and the plates were transferred to a TopCountNXT™ (supplier: Packard) for scintillation counting and values were expressed as counts per minute (cpm). For each experiment, controls (containing PARP-1 enzyme and DMSO without compound), a blank incubation (containing DMSO but no PARP-1 enzyme or compound) and samples (containing PARP-1 enzyme and compound dissolved in DMSO) were run in parallel. All compounds tested were dissolved and eventually further diluted in DMSO. In first instance, compounds were tested at a concentration of 10^−5M. […] In each test, the blank value was subtracted from both the control and the sample values. The control sample represented maximal PARP-1 enzyme activity. For each sample, the amount of cpm was expressed as a percentage of the mean cpm value of the controls. When appropriate, IC50-values (concentration of the drug, needed to reduce the PARP-1 enzyme activity to 50% of the control) were computed using linear interpolation between the experimental points just above and below the 50% level. Herein the effects of test compounds are expressed as pIC50 (the negative log value of the IC50-value). As a reference compound, 4-amino-1,8-naphthalimide was included to validate the filtration assay.

TANK-2 enzyme = target: T2, TANK-2 enzyme (Homo sapiens, UniProt Q9H2K2); assay: in vitro Scintillation Proximity Assay (SPA) for TANK-2 inhibitory activity; assay type: biochemical
T2 construct: His tag (inferred from capture on a Ni-coated plate); made in house
T2 sequence (Q9H2K2 1-1166): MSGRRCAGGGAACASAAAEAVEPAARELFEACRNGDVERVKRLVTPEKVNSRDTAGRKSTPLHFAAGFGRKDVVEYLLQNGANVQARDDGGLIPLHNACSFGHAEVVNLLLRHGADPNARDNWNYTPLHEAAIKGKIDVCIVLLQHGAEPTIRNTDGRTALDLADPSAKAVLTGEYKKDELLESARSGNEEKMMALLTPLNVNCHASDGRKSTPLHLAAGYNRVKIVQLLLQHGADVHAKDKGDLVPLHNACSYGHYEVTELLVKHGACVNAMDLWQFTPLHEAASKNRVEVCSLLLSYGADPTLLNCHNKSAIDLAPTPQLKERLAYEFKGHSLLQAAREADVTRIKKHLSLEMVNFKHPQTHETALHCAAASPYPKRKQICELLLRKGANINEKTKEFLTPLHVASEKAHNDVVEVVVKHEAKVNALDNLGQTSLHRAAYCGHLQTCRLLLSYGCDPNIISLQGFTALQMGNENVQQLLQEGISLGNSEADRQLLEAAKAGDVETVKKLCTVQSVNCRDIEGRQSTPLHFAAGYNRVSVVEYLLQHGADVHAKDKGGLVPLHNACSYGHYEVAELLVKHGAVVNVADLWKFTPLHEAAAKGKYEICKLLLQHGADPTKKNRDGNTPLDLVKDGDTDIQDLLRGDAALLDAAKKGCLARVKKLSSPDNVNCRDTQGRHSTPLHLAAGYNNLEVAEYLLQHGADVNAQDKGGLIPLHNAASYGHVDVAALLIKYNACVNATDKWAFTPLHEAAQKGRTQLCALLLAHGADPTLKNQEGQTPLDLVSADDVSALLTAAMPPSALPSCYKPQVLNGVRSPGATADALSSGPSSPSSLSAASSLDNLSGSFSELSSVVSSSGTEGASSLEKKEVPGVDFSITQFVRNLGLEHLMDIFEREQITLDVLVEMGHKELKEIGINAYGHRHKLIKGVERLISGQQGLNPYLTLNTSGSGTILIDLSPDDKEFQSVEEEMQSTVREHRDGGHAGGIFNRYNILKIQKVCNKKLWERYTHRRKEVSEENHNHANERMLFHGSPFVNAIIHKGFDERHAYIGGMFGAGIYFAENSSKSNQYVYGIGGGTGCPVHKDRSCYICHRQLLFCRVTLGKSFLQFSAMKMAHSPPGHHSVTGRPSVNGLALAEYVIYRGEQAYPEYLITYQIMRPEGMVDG
Protocol: In Vitro Scintillation Proximity Assay (SPA) for Tank-2 Inhibitory Activity
Compounds of the present invention were tested in an in vitro assay based on SPA technology with Ni Flash plates (96 or 384 well).
In principle, the assay relies upon SPA technology for the detection of auto-poly(ADP-ribosylation of TANK-2 protein using [^3H]-nicotinamide adenine dinucleotide ([^3H]-NAD^+) as ADP-ribosyl donor.
A stock solution of [^3H]-NAD^+/NAD was made by adding 64.6 μl of [^3H]-NAD^+ (0.1 mCi/ml, supplier: Perkin Elmer) and 46.7 μl NAD-stock (10.7 mM, stored at −20° C., supplier Roche) to 1888.7 μl assay buffer (60 mM Tris/HCl, pH 7.4; 0.9 mM DTT; 6 mM MgCl2). The TANK-2 enzyme was produced as described in EP1238063.60 μl of assay buffer, together with 1 μl of compound in DMSO, 20 μl of [^3H]-NAD^+/NAD and 20 μl of TANK-2 enzyme (final concentration 6 μg/ml) was added per well into a 96-well Ni-coated flash plate (Perkin Elmer). After incubation of the mixture for 120 min. at room temperature, the reaction was terminated by adding 60 μl of stopsolution (42.6 mg NAD in 6 ml H2O). The plates were covered with a plate sealer and placed in a TopCountNXT™ (Packard) for scintillation counting. Values were expressed as counts per minute (cpm). For each experiment, controls (containing TANK-2 enzyme and DMSO without compound), a blank incubation (containing DMSO but no TANK-2 enzyme or compound) and samples (containing TANK-2 enzyme and compound dissolved in DMSO) were run in parallel. All compounds tested were dissolved and eventually further diluted in DMSO. […] In each test, the blank value was subtracted from both the control and the sample values. The control sample represented maximal TANK-2 enzyme activity. For each sample, the amount of cpm was expressed as a percentage of the mean cpm value of the controls. When appropriate, IC50-values (concentration of the drug, needed to reduce the TANK-2 enzyme activity to 50% of the control) were computed using linear interpolation between the experimental points just above and below the 50% level. Herein the effects of test compounds are expressed as pIC50 (the negative log value of the IC50-value). As reference compounds, 3-aminobenzamide and 4-amino-1,8-naphthalimide were included to validate the SPA assay. Herein the assay was described using 96-well plates. In the assay using 384-well plates the same final concentrations were used and volumes were adapted.

T1 sequence (P09874 whole entry): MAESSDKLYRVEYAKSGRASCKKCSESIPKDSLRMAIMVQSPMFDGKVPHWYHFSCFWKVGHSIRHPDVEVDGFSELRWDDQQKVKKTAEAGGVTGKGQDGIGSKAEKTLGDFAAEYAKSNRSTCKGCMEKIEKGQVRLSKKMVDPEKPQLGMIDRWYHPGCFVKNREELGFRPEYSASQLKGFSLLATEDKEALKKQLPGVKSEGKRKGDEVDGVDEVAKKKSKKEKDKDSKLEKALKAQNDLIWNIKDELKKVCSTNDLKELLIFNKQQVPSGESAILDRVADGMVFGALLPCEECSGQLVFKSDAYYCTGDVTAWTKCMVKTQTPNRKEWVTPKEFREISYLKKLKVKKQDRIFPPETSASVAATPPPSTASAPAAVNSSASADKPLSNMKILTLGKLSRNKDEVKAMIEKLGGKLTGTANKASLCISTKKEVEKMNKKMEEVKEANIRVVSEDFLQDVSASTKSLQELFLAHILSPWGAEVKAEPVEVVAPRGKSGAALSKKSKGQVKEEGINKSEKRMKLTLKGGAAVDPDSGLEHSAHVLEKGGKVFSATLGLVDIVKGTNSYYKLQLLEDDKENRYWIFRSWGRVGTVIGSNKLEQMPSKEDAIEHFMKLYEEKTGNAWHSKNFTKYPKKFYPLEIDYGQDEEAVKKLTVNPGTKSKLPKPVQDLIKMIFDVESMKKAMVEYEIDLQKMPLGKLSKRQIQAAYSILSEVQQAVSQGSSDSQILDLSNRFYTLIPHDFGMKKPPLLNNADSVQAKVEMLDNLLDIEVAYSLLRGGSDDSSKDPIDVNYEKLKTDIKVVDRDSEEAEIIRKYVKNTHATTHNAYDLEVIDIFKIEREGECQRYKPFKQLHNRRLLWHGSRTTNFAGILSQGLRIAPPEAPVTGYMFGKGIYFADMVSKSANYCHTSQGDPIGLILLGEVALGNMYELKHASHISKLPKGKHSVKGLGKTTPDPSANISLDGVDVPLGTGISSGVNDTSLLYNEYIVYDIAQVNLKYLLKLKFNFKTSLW

Compound | reduced infarct size ([1]; single injection 1 mg/kg) | reductions in infarct size in the heart ([1]; single injection 10 mg/kg, one minute before occlusion or one minute before reperfusion) | effect on inflammatory response and distal colon (distal colon (colitis)) | IC50 (PARP-1 enzyme) [nM] | melting point [°C] | IC50 (TANK-2 enzyme) [nM]
Oc1cccc2c(O)nccc12 [1,5-dihydroxyisoquinoline] | 38-48% |  |  |  |  | 
NC(=O)c1cccc(N)c1 [3-amino-benzamide] |  | 32-42% | reduced the inflammatory response |  |  | 
O=c1[nH]nc(C2CCN(CC(O)COc3ccc(F)cc3)CC2)c2ccccc12 (centres unmarked) [Compound 2] |  |  |  | 17.2 | 226.9 | 
CC(=O)N1CCC(c2n[nH]c(=O)c3ccccc23)CC1 [Compound 5] |  |  |  | 270 | 222 | > 10000
NC(=O)N1CCC(c2n[nH]c(=O)c3ccccc23)CC1 [Compound 6] |  |  |  | 195 | > 300 | > 10000
N#CCN1CCC(c2n[nH]c(=O)c3ccccc23)CC1 [Compound 7] |  |  |  | 88.9 | 259 | 9620
NCCN1CCC(c2n[nH]c(=O)c3ccccc23)CC1 [Compound 8] |  |  |  | 29 | 202 | > 10000
NCC1CCN(c2n[nH]c(=O)c3ccccc23)CC1 [Compound 9] |  |  |  | 15.5 | 182 | > 10000
O=c1[nH]nc(N[C@H]2CCN[C@@H](Cc3ccccc3)C2)c2ccccc12 [Compound 10] |  |  |  | 24.3 | 238 | > 10000
CCOC(=O)N1CC[C@H](Nc2n[nH]c(=O)c3ccccc23)C[C@@H]1Cc1ccccc1 [Compound 16] |  |  |  | 378 | 140 | > 10000
